One molecule from US6428968B1, “Combined therapy with a chemotherapeutic agent and an oncolytic virus for killing tumor cells in a subject” (The Trustees of the University of Pennsylvania, priority 1999, dated 2002) can be followed below.

Each structure is given as a SMILES string. Values joined by “and” are separate entries in the source; they are usually repeats but may differ in a detail not shown here. Identical values can stand only once.

Test [1] relates to H460 (large cell carcinoma) cells. In words: In vitro cell viability assay, H460 cells. It is filed as cell-based, human. To be noted: cell line H460; HSV-1716 at an MOI of 0.1, mitomycin C at 0.1 micromolar. On the procedure: Individual chemotherapeutic agents were then added to selected wells.
Each treatment experiment was performed at least twice.

For another test, the system named is H460 tumors. In words: In vivo xenograft flank model. Further details: species or system SCID mice. To be noted: 22 days after injection of H460 cells. Here is the method: The combined effects of mitomycin C and HSV-1716 using NSCLC tumors was assessed in vivo as follows. Cells of line H460 were implanted subcutaneously in the flanks of severe combined immunodeficient (SCID) mice. […] HSV-1716 was injected directly into individual tumors at a dose of 4×10^6 plaque forming units (pfu) in 200 microliters of medium. Control mice were injected with medium alone. Twenty-four hours later, 0.17 milligrams per kilogram body weight mitomycin C or an equivalent amount of PBS was administered to separate groups of HSV-treated and control mice. Tumor volume was estimated in all mice at regular intervals. Tumor volume in cubic millimeters was estimated using the formula
where TLmm was tumor length in millimeters and TWmm was tumor width in millimeters. Tumor growth curves were generated using the estimated values for tumor volume. After a period of 3-4 weeks, mice were sacrificed and their tumors were weighed.
In order to assess the oncolytic effect of mitomycin C in combination with HSV-1716, a murine xenograft model was used. […] These doses were designated ‘sufficient doses.’ H460 tumor cells were injected into the flanks of SCID mice. […] At that time, about 4×10^6 pfu of HSV-1716 or an equivalent volume of culture medium was injected into individual tumors. […]

The next test has as its system HSV-1716 in H460 cells. Description: One step growth curve, H460 cells (black plaque assay). The test is classed as cell-based, herpes simplex virus type 1. Particulars: for burst size of HSV-1716: H460, MOI 0.1. Here is the method:
H460 cells were incubated overnight in six-well plates at a density of about 300,000 cells per well under standard culture condition. Following this incubation, the cells were infected with HSV-1716 at an MOI of 0.1 pfu. In a parallel experiment with five different experimental arms, the following procedures were performed. In the first and second arms, the cells were incubated in the presence of 0.1 micromolar mitomycin C or an equivalent additional volume of culture medium. Mediun or medium containing mitomycin C was added to the wells for 3 hours, either immediately before (in the first arm) or immediately following (in the second arm) infection of the cells with HSV-1716. In the other three arms, medium containing 0.1, 1.0, or 3.0 micromolar mitomycin C was added to the wells for 48 hours following infection of the cells with HSV-1716.
Cells were harvested from individual wells 1, 6, 19, 24, or 48 hours following infection. Cells were harvested by scraping cells from the walls of their well into the medium contained within the well. Harvested cells were stored at −80° C. Cell samples were titered by black plaque assay using baby hamster kidney cell (BHK) monolayers as described (Kucharczuk et al., 1997, Cancer Res. 57:466-471).
In order to examine what effect mitomycin C might have on viral replication, one step growth curve experiments were performed. H460 cells were infected with HSV-1716 at an MOI of 0.1, and then 0.1 or 1.0 or 3.0 micromolar mitomycin C was added to the cell culture medium. At selected times, cells were harvested and titered by black plaque assay as described herein. […] Addition of 1.0 or 3.0 micromolar mitomycin C for 48 hours after infection reduced burst size (13.7 and 0.2, respectively).

The next test deals with HSV-1716 in A549 cells. Description: One step growth curve, A549 cells. The test is classed as cell-based, herpes simplex virus type 1. To be noted: cell line A549; low dose mitomycin C (0.1 micromolar).

For `CO[C@@]12[C@H](COC(N)=O)C3=C(C(=O)C(C)=C(N)C3=O)N1C[C@@H]1N[C@@H]12` [mitomycin C], the cell survival in test [1] came out at 96.7%. Besides, the “final mean tumor burden (tumor weight)” value in the test with H460 tumors (HSV-1716 4×10^6 pfu intratumoral day 7, mitomycin C 0.17 mg/kg i.v. day 8, n=14) is on record as 1.122±0.070 grams. The “reduction of tumor burden relative to the control” value in the test with H460 tumors (HSV-1716 4×10^6 pfu intratumoral, mitomycin C 0.17 mg/kg i.v.) is 20.2% and 21.8%. For the same molecule, the “burst size of HSV-1716” value with HSV-1716 in H460 cells (1.0 micromolar mitomycin C for 48 hours after infection) is 13.7; in the test on HSV-1716 in H460 cells (3.0 micromolar mitomycin C for 48 hours after infection), 0.2; in the test with HSV-1716 in H460 cells (post-treatment with 0.1 micromolar mitomycin C for 3 hours), 57.1; with HSV-1716 in H460 cells (post-treatment with 0.1 micromolar mitomycin C for 48 hours), 53.3; with HSV-1716 in H460 cells (pre-treatment with 0.1 micromolar mitomycin C for 3 hours), 42.1. The “effect on burst size of HSV-1716” value in the test on HSV-1716 in H460 cells (cell line H460, low dose mitomycin C (0.1 micromolar)) is “Neither Augmented nor Reduced”; with HSV-1716 in A549 cells, “Neither Augmented nor Reduced”.
